Here are results for 1 molecule from patent US9132108B2, “Pharmaceutical composition for ameliorating and/or preventing leptin resistance, and use thereof” (HIROSHIMA UNIVERSITY, priority 2009, dated 2015).

What all share (type): in vivo, mouse
In data set [1] the test system is STAT3 phosphorylation in hypothalami. Briefly: Western blotting of STAT3 phosphorylation in hypothalami 30 min after leptin injection (Example 2). Conditions: Group 4 (high-fat diet+flurbiprofen) vs Group 2; approximately 10 mg/kg per day orally, 8 weeks; 30 minutes after leptin 1 mg/kg via tail vein; significance level <1%. How it is done: 4 weeks-old male mice (C57BL/6 Cr Slc) had been given normal diet (10 kcal % fat, D12450B, produced by Research Diets, Inc.) or high-fat diet (60 kcal % fat, D12492, produced by Research Diets, Inc.). Flurbiprofen was diluted with drinking water so that the administration amount of flurbiprofen would be approximately 10 mg/kg per day, and was orally administered to the mice in the form of drinking water.
Specifically, mice were divided into four groups each consisting of 7-8 mice. Mice of individual groups were given diets as follows. • Group 1: Normal diet (10 kcal % fat) only • Group 2: High-fat diet (60 kcal % fat) only • Group 3: Normal diet+flurbiprofen • Group 4: High-fat diet+flurbiprofen
A solution prepared by solving mouse-derived leptin (450-31, produced by PeproTech Inc. or 498-OB, rmLeptin, produced by R&D systems) in physiological saline was non-orally administered via tail vein to the mice, which had been given high-fat diet or normal diet for 8 weeks. The non-oral administration was done in such a manner that the administration amount of leptin would be 1 mg/kg. As a control for leptin administration, physiological saline in equal amount was administered to the mice via tail vein.
FIGS. 4 and 5 show the result of Western blotting of STAT3 phosphorylation in hypothalami of mice 30 minutes after leptin injection. […]

The test system of data set [2] is mice. Briefly: Open Field Test, amounts of mice activity (Example 6). The following applies: Group 3 or 4 (flurbiprofen) vs Group 1 or 2 (no flurbiprofen); 10 mg/kg per day orally, 8 weeks. How it is done: In order to measure the amounts of mice activity, an Open Field Test was carried out. Specifically, 4 weeks-old male mice (C57BL/6 Cr Slc) were divided into four groups each consisting of 15-16 mice. Mice of individual groups were given diets as follows for 8 weeks similarly with Example 5. • Group 1: Normal diet (10 kcal % fat) only • Group 2: High-fat diet (60 kcal % fat) only • Group 3: Normal diet+flurbiprofen • Group 4: High-fat diet+flurbiprofen
Flurbiprofen (F8514, produced by SIGMA) was diluted with drinking water so that the administration amount of flurbiprofen would be 10 mg/kg per day, and was orally administered to the mice in the form of drinking water.
The mice raised for 8 weeks with high-fat diet or normal diet were subjected to the Open Field Test.
The Open Field Test is a test in which mice were put at the center of a square field (48×48 cm) and the amounts of activity of the mice in the new environment were measured in numerals. Specifically, with respect to each of the mice, the amount of activity per 5 minutes was measured using a locomotor activity measuring device (SCANET MV-10MT, produced by Toyo Sangyo Co., Ltd.). The measurements were performed between 16:30 and 17:30 which was a time before feeding behavior of the mice would become active. […]

Data set [3] concerns circulating leptin levels. Put plainly: Circulating leptin levels of leptin-resistant mice (Example 9). The following applies: 3 weeks after flurbiprofen administration, 3 mg/kg per day orally; control 106.51±3.7122; P<0.05. How it is done: Similarly with Example 8, 4 weeks-old male mice (C57BL/6 Cr Slc) had been given high-fat diet for 6 months so that leptin resistance would be induced in the mice. Thereafter, the mice were divided into two groups (each consisting of 8 mice), and the mice of individual groups were given the following diets for 3 weeks. • Control group (Cont): normal diet (10 kcal % fat) only • Flurbiprofen-administered group (Ful): normal diet+flurbiprofen Flurbiprofen (F8514, produced by SIGMA) was diluted with drinking water so that the administration amount of flurbiprofen would be 3 mg/kg per day, and was orally administered to the mice in the form of drinking water. […] FIG. 15 is a graph showing circulating leptin levels (ng/ml) of the mice of the control group and the mice of the flurbiprofen-administered group which had been given normal diet for 3 weeks. Values in the graph of FIG. 15 are averages of circulating leptin levels (ng/ml) of mice of each group (± their standard deviations) (n=8 with respect to each group). Further, statistic analysis was carried out using t-test.

For data set [4], the system named is mice. Briefly: Body length of mice after flurbiprofen administration (Example 10). The following applies: flurbiprofen-administered group vs control group; 3 mg/kg per day orally, 3 weeks. How it is done:
Similarly with Example 8, 4 weeks-old male mice (C57BL/6 Cr Slc) had been given high-fat diet for 6 months so that leptin resistance would be induced in the mice. Thereafter, the mice were divided into two groups (each consisting of 8 mice), and the mice of individual groups were given the following diets for 3 weeks. • Control group (Cont): normal diet (10 kcal % fat) only • Flurbiprofen-administered group (Ful): normal diet+flurbiprofen Flurbiprofen (F8514, produced by SIGMA) was diluted with drinking water so that the administration amount of flurbiprofen would be 3 mg/kg per day, and was orally administered to the mice in the form of drinking water. The result of measurement of body length of the mice, to which flurbiprofen had been administered for 3 weeks, is shown in FIG. 16. FIG. 16 is a graph showing the body length (cm) of the mice of the control group and the mice of the flurbiprofen-administered group which had been given normal diet for 3 weeks. Values in the graph of FIG. 16 are averages of body lengths (cm) of mice of each group (± their standard deviations) (n=8 with respect to each group). Further, statistic analysis was carried out using t-test.

For `C[C@@H](C(=O)O)c1ccc(-c2ccccc2)c(F)c1` [flurbiprofen], the “intensity of STAT3 phosphorylation in hypothalami” value in data set [1] is recorded as “significantly higher”. The “amounts of activity (locomotor activity, counts/5 min)” value in data set [2] is recorded as “no significant difference in the amounts of activity”. The circulating leptin level in data set [3] amounted to 87.105 ± 5.4415 ng/mL. For the same molecule, the body length entry in data set [4] is listed as “no significant difference in body length”.
